What was measured:
male mice = conditions: mouse, in vivo, po
Procedure: A seven day repeat oral gavage study was carried out in male mice in order to detect any obvious signs of clinical toxicity upon administration of BST-605. For comparison, two groups were dosed with BST-4997 and BST-146 (acetyl ester of BST-4997 that is rapidly hydrolyzed to parent BST-4997). Dosing was done daily at 10, 30 and 100 mg/kg/day, and blood draws were taken at the end of study at 1, 2, 4 and 8 h post-dosing.

[1] = Redox metal ion binding affinity, visible spectroscopic titration (Fe2+); conditions: visible spectroscopy, 480 nm (430 nm for pyridoxamine); read-out: Fe^2+ Kd
Description: (§1) The AGE inhibition by these types of compounds is believed to occur when the compounds interfere with the role of the required redox metal ions in the oxidative breakdown of the Amadori intermediates to advanced glycation end products (“glycoxidation”). […] These spectral titrations usually involve adding varying amounts of compound to a fixed amount of metal ion in a suitable buffer having low metal ion affinity under physiological pH conditions. In cases of extreme affinity, binding constants were estimated in a competitive assay mode.
(§2) Binding affinity is measured as the dissociation constants Kd (units of concentration). All measurements were done by visible spectroscopy by monitoring the spectrum of the complex formed by each compound near its wavelength maximum, which depends on the metal ion being studied.

RNase-Amadori = experiment: Post-Amadori AGE/CML ELISA inhibition assay; assay type: biochemical; conditions: for IC50: 20 hours at 37° C.
Description: Using a novel modification of the AGE Inhibition assay, we have determined the post-Amadori AGE inhibition potency for compounds of interest. The experiments were designed to determine the half-maximal inhibitory concentration of compounds (“IC50 values”) for inhibiting the conversion of Amadori intermediates to advanced glycation end products. The post Amadori AGE/CML ELISA assay has been developed to a 384 well format for rapidly testing potential inhibitors prepared from DMSO stocks. Assay signal to background ratios are high, at greater than 20:1. Results in this format for AGE inhibitors agree well with previous data, providing some measure of method validation, making the assay is robust and reliable. Compounds for testing were dissolved at 100 mM or their maximum concentration in 100% DMSO. […] A subset of compounds were not fully soluble in DMSO at concentrations as low as 10 mM. […] When necessary, the activity of compounds was subsequently confirmed in a more thorough repeat test against AGE formation from both RNase Amadori and BSA Amadori. Typically, from DMSO stocks, two stock plates were made. Each well contained 50 μL.
The stock plate #2 was then frozen at −20° C. during preparation. Later, stock plate #2 was removed from the freezer and allowed to thaw for 30 minutes. The compounds in the plate were then mixed repeatedly with a pipettor and diluted 5× into 0.01 N HCl in H2O.
Further dilutions were then carried out spanning two orders of magnitude of concentration. After the compounds were diluted, 10 ul of phosphate buffer was added to each well and mixed to neutralize the solution before protein addition. Next 15 μL of 0.333 mg/mL of RNase-Amadori in phosphate buffer was added from a stock of ribose-RNAse prepared at 10.7 mg/mL. These constitute the AGE reaction mixtures. All AGE reactions proceeded for 20 hours at 37° C. Reactions were then diluted 50 fold into coating buffer by 10× then 5× serial dilution. Coating proceeded at 37° C. for two hours. Final protein was 0.1 μg/well in 384 well plates (2 μg/mL). ELISA was carried out similarly to before using the primary antibody BST-3CK at 1:10000 dilution, and the secondary antibody labeled with DELPHIA Europium GAR at 1:4000 dilution.

[2] = In vivo plasma concentration and metabolites (HPLC fluorescence, LC-MS/MS); conditions: for metabolites in plasma: mice plasma
Procedure: The plasma drawn from the mice in the above MTD study was examined by an HPLC fluorescence method for the presence of parent drug at different times as well as for the possible presence of metabolites. […] An HPLC fluorescence method was developed to assay for parent drugs and possible metabolites of each drug. The HPLC method was further adapted for LC-MS/MS study by changing from phosphoric acid to volatile 20 mM ammonium acetate.
Possible structures for the metabolites include the following: […]

[3] = test system: streptozotocin (STZ)-diabetic rats; experiment: Efficacy study in STZ rat model of diabetic neuropathy (nerve conduction velocity); assay type: in vivo
Procedure: The STZ rat model has been described previously in WO 2004/019889. Our aim was to ascertain whether BST-605 treatment could correct nerve dysfunction in streptozotocin (STZ)-diabetic rats. Animals were made diabetic for 6 weeks, following which they were treated (n=6) for 2 weeks with BST-605 given in the drinking water at concentrations adjusted to correspond to doses of 0.22, 0.67 and 2.0 mg/kg/day. They were compared to control non-diabetic rats (n=10).
Motor NCV was tested between the sciatic notch and knee for the nerve branch to tibialis anterior muscle, as described in Cameron et al., Q. J. Exp. Physiol. 74:917-926 (1989); and Cameron et al, Exp. Neurol. 92:757-761 (1986).
Saphenous sensory NCV was measured between the groin and ankle.

HepG2 cells = experiment: Cell based toxicity assay (MTT); conditions: fixed concentration 1 mM
Description: Hepatotoxicity is one of the major causes of drug failure in the clinic. HepG2 cells are human cells derived from a liver tumor, and express many of the proteins and detoxification pathways of normal hepatocytes, and so make a reasonable model for initial cellular toxicity testing of candidate compounds. The test is based on the active conversion of 3-[4,5-dimethylthiazol-2-yl]-2,5-dephenyltetrazolium bromide (MTT) by mitochondrial oxidation-reduction reactions into blue formazan crystals. Decreased crystal formation corresponds to decreased cell viability. Azide and chlorpromazine served as a positive controls
10×MTT stock solution (5 mg/ml MTT in 0.9% NaCl)
0.04 N HCl in isopropanol
Compound stocks: 100 mM in 100% DMSO
MTT working solution: diluting 10×MTT stock into culture medium.
Test article in cell culture medium; Final DMSO concentration on the cells varies with the compound concentration (Final concentration of solvents such as DMSO should be kept at or below 1%)
• 1. Aspirate culture medium from HepG2 cells. Replace culture medium with test article dissolved in culture medium. • 2. Incubate in 37° C., 5% CO2 incubator for 16-24 hours. • 3. Aspirate the medium from the cells; replace with an equal volume of 37° C. MTT working solution. • 4. Incubate for 3 hours. • 5. Replace MTT solution with an equal volume of acidified isopropanol. • 6. […] Read the absorbance of the solution at 570 nm. […]

[4] = Redox metal ion binding affinity, visible spectroscopic titration (Cu2+); conditions: visible spectroscopy, physiological pH; read-out: Cu^2+ Kd
Description: as §1, §2

[5] = Drug exposure in plasma of STZ rats at sacrifice; assay type: in vivo; conditions: lowest two doses
Procedure: A determination of drug exposure was also made from plasma collected from STZ rats at sacrifice that were dosed at the lowest two doses. […] The detection of parent drugs and metabolites in the STZ rat, as in the mice plasma, confirms that sufficient exposure to the drug occurred in the studies so as to make the toxicity findings and in vivo efficacy reflective of drug administration.

[6] = Redox metal ion binding affinity, visible spectroscopic titration (Fe3+); conditions: visible spectroscopy, 480 nm (430 nm for pyridoxamine); read-out: Fe^3+ Kd
Description: as §1, §2

STZ rats = experiment: Tissue staining for carboxymethyllysine (CML) AGEs in nerve vasculature; assay type: in vivo; conditions: compared to diabetic controls
Description: This was done by quantitative measurements of tissue staining for carboxymethyllysine (CML) AGEs, using anti-CML antibodies.

[7] = STZ rats, 2 weeks in drinking water, 0.22, 0.67 and 2.0 mg/kg/day

Structure (SMILES)	clinical toxicity in MTD study (male mice)	Kd [1] [µM]	Potency Relative to BST-4997 (RNase-Amadori)	potency over BST-4997 (RNase-Amadori) [fold]	potency over pyridoxamine (RNase-Amadori) [fold]	IC50 (RNase-Amadori) [µM]	metabolites in plasma [2]	plasma concentration of parent drug versus dose ([2]; mice, plasma 1, 2, 4 and 8 h post-dosing, 10, 30 and 100 mg/kg/day)	diabetic complications in STZ rat model ([3]; STZ rat model)	restoration of nerve conduction velocity in motor (sciatic nerve) neurons [3, 7]	restoration of nerve conduction velocity in sensory (saphenous) neurons [3, 7]	acute toxicity in HepG2 cell viability (MTT) (HepG2 cells)	Kd [4] [µM]	drug exposure in plasma [5]	Kd [6] [µM]	AGE (CML) staining in the nerve vasculature (STZ rats)
Cc1ncc(CN2CCN(C)CC2)c(-c2ncc[nH]2)c1O [BST-605]	no adverse clinical signs or gross examination findings	720	6	6	50	100	oxidized and/or undergone glucuronidation	proportional to dose	ameliorates diabetic complications	efficacy at very low concentrations	efficacy at very low concentrations	no acute toxicity	0.13	Drug exposure was observed and measured	520	
Cc1ncc(CO)c(-c2ncc[nH]2)c1O [BST-4997, reference compound]	significant toxicity at and above 30 mg/kg/day	690	(1)			600	oxidized and/or undergone glucuronidation					some evidence of toxicity	1.13		610	significant decrease in AGE staining
Cc1ncc(CO)c(CN)c1O [Pyridoxamine, pyridoxamine, reference compound]						5000										
